From patent US20040220239A1, “Inhibitors of serine protease activity methods and compositions for treatment of nitric oxide-induced clinical conditions” (priority 2003, published 2004)
Entries after “also recorded” stand apart in the source; their conditions may differ.

Assays:
Format in all cases: cell-based
[1] = test system: RAW 264.7 macrophages; experiment: NO release induced by LPS and γ-IFN in macrophagic cells (nitrite, Greiss reagent); settings: induction with γ-IFN and LPS, FIG. 1, FIG. 4
Experimental: RAW 264.5 macrophages are selected for measuring the effect of α1-antitrypsin on NO release. RAW 264.7 cell monolayers are pretreated for 1 hour with α1-antitrypsin (0.1-3 mg/ml), followed by costimulation by interferon-γ(10 U/ml), and LPS (1 ng/ml) for 18 hours. Aliquots (100 μl) of supernatant are combined with equal volumes of Greiss reagent and incubated at room temperature for 10 minutes. The colorimetric determination of nitrite concentration is measured by absorbance at 550 nm and quantified with a standard curve. The combination of LPS and interferon-γ is a potent stimulus for NO release in […] macrophages. The effect of α1-antitrypsin at 3 mg/ml on NO expression is measured.

[2] = test system: NF-κB; experiment: Electrophoretic mobility shift assay of NF-κB induced by interleukin-18; settings: induced by incubation with IL-18, EMSA; FIG. 3
[3] = test system: p-ERK (p42/p44 MAP kinase); experiment: Western blot of p-ERK expression; settings: FIG. 5
[4] = test system: cytomegalovirus (CMV); experiment: Cytomegalovirus replication in infected RAW 264.5 macrophages; settings: RAW 264.5 macrophages infected with CMV; FIG. 6
[5] = test system: iNOS protein; experiment: Induction of iNOS protein by LPS and γ-interferon, Western blot; settings: macrophagic cells, γ-IFN and LPS, FIG. 2
Experimental: RAW 264.7 macrophage monolayers are treated for 1 hour with α1-antitrypsin (3 mg/ml), followed by costimulation by interferon-γ (10 U/ml), and LPS (1 ng/ml) for 18 hours. The cells are lysed by exposure to lysis solution (50 mm Tris-HCl, pH 8.0, 137 mm NaCl, 10% (v/v) glycerol, 1% (v/v), Nonidet P-40, 1 mM NaF, 10 μg/ml leupeptin, […] aprotinin, 2 mM sodium vanadate, and 1 mM phenylmethylsulfonyl fluoride). Samples containing equivalent amounts of total protein are subjected to SDS-polyacrylamide gel electrophoresis. Western blots of the gels are prepared, non-specific sites blocked by incubation overnight with 5% non-fat dry milk, and iNOS detected by incubation with iNOS anti-serum (Alexis Corporation, 1:1000 in 5% (w/v) bovine serum albumin in a solution of 20 mm Tris-HCl, pH 7.6, 137 mM […], and 0.005% (v/v) Tween 20). Using horseradish peroxidase-conjugated second antibody, the antibody bound to iNOS is detected by enhanced chemiluminescence. The effect of the combination of interferon-γ, and LPS on induction of iNOS in the cell extract and the effect of pretreatment with α1-antitrypsin are measured.

[6] = test system: herpes simplex virus (HSV); experiment: Herpes simplex virus replication; settings: FIG. 7

Row | Molecule | effect on NO levels (measured as NO2-) induced by γ-IFN and LPS [1] | effect on induction of active NF-κB [2] | effect on level and/or phosphorylation of p-ERK [3] | effect on CMV replication [4] | effect on induction of iNOS protein [5] | effect on replication of HSV [6]
1 | Cc1cccc(Cc2nnc(C(=O)C(NC(=O)[C@@H]3CCCN3C(=O)[C@@H](NC(=O)OCc3ccccc3)C(C)C)C(C)C)o2)c1 (stereo partly drawn) [CE-2072, benzyloxycarbonyl-L-valyl-N-[1-(2-[5-(3-methylbenzyl)-1,3,4-oxadiazolyl]carbonyl)-2-(S)-methylpropyl]-L-prolinamide, reference compound] | inhibits NO levels | inhibit the induction of active NF-κB |  |  |  | 
2 | α1-antitrypsin | efficiently block γ-IFN- and LPS-induced NO synthesis; also recorded: inhibits NO levels | inhibit the induction of active NF-κB | inhibits the level and/or phosphorylation of p-ERK | blocks CMV replication | inhibits induction of iNOS protein | inhibits replication of HSV
